Measurements reported in patent US20150246071A1, “TREATMENT COMPOSITIONS” (REOXCYN DISCOVERIES GROUP, INC., priority 2012, published 2015).

Tests used:
[1] = system: phosphorylated proteins (extra-nuclear fraction); assay: Western Blot of protein phosphorylation in extra-nuclear fraction of HMVEC-L; type: cell-based, human; conditions: composition 1%, H2O2 positive control
Procedure: (§1) 8. A Western Blot analysis was done on extra-nuclear and intra-nuclear fractions, separated by differential centrifugation, of serum starved HMVEC-L cell cultures exposed to <1% of a composition of the invention compared with a positive hydrogen peroxide control to determine phosphorylation events (oxidant action) in the extra-nuclear fraction and NRF2 (antioxidant transcription) in the intra-nuclear fraction at 0, 30, 60, 90 and 120 min intervals.
(§2) Experimental Methods for Western Blot Validation of NRF2 Nuclear Accumulation: HMVEC-L were treated with 1% of a composition of the invention, nuclear extracts were separated through centrifugal differentiation from the extra-nuclear cytosol at 30, 60 and 120 min and subjected to Western Blot analysis for NRF2. In the Western blot experiment the extra-nuclear fraction was probed for phosphorylated proteins using a combination of anti-phospho serine, threonine and tyrosine antibodies. Virtually all cellular processes are regulated by posttranslational modifications and protein phosphorylation is a prevalent mechanism. […]

[2] = system: NRF2; assay: Western Blot validation of NRF2 nuclear accumulation in HMVEC-L; type: cell-based, human; conditions: ASEA 1% at 30, 60, 120 min, H2O2 30 min
Procedure: as §1, §2

OO [H2O2, Hydrogen peroxide]
phosphorylation of extra-nuclear protein (Western Blot) [1]: marked increase
NRF2 levels in nuclear extracts (Western Blot) [2]: did not increase
